From patent US7534785B2, “3,6-dihydro-2-oxo-6H-1,3,4,-thiadiazine derivatives” (Merck Patent Gesellschaft, priority 2005, dated 2009) come the findings set out here.

Usually IC50 stands for the concentration at which inhibition is half-maximal.

Structures are written as SMILES.

In the assay the target is T1, Met kinase (Homo sapiens, UniProt P08581).
T1 construct: 6His (N); purchased Upstate 14-526; host or cells: Sf21 insect cells (S. frugiperda), baculovirus
T1 sequence (P08581 25-1390): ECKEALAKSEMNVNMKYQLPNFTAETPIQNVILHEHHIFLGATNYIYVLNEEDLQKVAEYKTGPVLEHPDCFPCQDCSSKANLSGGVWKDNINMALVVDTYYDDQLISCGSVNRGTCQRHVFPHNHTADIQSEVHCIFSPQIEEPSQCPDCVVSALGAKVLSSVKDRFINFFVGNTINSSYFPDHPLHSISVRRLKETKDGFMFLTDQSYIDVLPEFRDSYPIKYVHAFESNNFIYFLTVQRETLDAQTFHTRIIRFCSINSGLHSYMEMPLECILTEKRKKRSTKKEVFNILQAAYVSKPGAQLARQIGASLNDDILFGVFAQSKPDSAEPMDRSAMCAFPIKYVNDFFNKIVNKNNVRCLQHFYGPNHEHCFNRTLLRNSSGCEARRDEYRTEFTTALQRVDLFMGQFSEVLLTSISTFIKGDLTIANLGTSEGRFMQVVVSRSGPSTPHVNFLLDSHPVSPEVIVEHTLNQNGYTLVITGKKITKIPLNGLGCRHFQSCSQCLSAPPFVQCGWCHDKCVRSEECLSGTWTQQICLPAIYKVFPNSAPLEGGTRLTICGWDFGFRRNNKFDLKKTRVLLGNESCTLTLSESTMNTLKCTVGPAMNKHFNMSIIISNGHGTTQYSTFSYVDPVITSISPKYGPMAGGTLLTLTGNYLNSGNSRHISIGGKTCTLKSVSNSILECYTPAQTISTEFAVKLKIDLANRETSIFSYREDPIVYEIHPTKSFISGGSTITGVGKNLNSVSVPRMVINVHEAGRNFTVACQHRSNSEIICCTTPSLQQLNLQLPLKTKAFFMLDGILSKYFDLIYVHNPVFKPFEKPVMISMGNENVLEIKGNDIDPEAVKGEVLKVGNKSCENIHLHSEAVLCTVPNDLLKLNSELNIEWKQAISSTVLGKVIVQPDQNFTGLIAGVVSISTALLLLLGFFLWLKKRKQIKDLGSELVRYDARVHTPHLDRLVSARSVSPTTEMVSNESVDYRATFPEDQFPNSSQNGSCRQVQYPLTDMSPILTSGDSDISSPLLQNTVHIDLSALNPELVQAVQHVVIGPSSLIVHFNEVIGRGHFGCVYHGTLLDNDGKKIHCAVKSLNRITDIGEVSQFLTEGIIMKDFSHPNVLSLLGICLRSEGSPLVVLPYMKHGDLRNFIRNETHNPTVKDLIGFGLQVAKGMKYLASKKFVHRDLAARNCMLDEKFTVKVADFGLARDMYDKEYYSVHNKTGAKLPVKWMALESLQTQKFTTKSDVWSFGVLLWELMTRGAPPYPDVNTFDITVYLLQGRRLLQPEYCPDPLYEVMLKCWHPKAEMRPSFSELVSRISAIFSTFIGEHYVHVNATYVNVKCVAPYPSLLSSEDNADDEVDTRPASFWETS
Kind of assay: Met kinase inhibition, flashplate method. The class given is biochemical. Particulars: 1 μM ATP, substrate pAGLT, 3 hrs at room temperature, read-out: IC50 (enzyme). From the text: According to the manufacturer's data (Met, active, upstate, catalogue No. 14-526), Met kinase is expressed for the purposes of protein production in insect cells (Sf21; S. frugiperda) and subsequent affinity-chromatographic purification as “N-terminal 6His-tagged” recombinant human protein in a baculovirus expression vector.
The test plates used are 96-well Flashplate® microtitre plates from Perkin Elmer (Cat. No. SMP200). The components of the kinase reaction described below are pipetted into the assay plate. The Met kinase and the substrate poly Ala-Glu-Lys-Tyr, (pAGLT, 6:2:5:1), are incubated for 3 hrs at room temperature with radioactively labelled ^33P-ATP in the presence and absence of test substances in a total volume of 100 μl. The reaction is terminated using 150 μl of a 60 mM EDTA solution. After incubation for a further 30 min at room temperature, the supernatants are filtered off with suction, and the wells are washed three times with 200 μl of 0.9% NaCl solution each time. The measurement of the bound radioactivity is carried out by means of a scintillation measuring instrument (Topcount NXT, Perkin-Elmer).
The full value used is the inhibitor-free kinase reaction. This should be approximately in the range 6000-9000 cpm. The pharmacological zero value used is staurosporin in a final concentration of 0.1 mM. The inhibitory values (IC50) are determined using the RS1_MTS program.
Kinase Reaction Conditions per Well: • 30 μl of assay buffer • 10 μl of substance to be tested in assay buffer with 10% of DMSO • 10 μl of ATP (final concentration 1 μM cold, 0.35 μCi of ^33P-ATP) • 50 μl of Met kinase/substrate mixture in assay buffer; • (10 ng of enzyme/well, 50 ng of pAGLT/well)
Solutions Used: • Assay Buffer: • 50 mM HEPES • 3 mM magnesium chloride • 3 μM sodium orthovanadate • 3 mM manganese(II) chloride • 1 mM dithiothreitol (DTT) • pH=7.5 (to be set using sodium hydroxide) • Stop Solution: • 60 mM Titriplex III (EDTA) • ^33P-ATP: Perkin-Elmer; • Met kinase: Upstate, Cat. No. 14-526, Stock 1 μg/10 μl; spec. activity 954 U/mg; • Poly-Ala-Glu-Lys-Tyr, 6:2:5:1:Sigma Cat. No. P1152
In the case of `CCN(CC)CCCNC(=O)Nc1cccc(CN2N=C(c3ccc(Cl)cc3)CSC2=O)c1` [Compound A3], the IC50 lay within 0.01 to 1 µM. With `C[C@H](O)CNC(=O)Nc1cccc(CN2N=C(c3ccc(Cl)cc3)CSC2=O)c1` [Compound A4], the IC50 lay in the range of 0.01 to 1 µM. In the case of `CN1CCC(CNC(=O)Nc2cccc(CN3N=C(c4ccc(Cl)cc4)CSC3=O)c2)C1` (centres unmarked) [Compound A1, 1-{3-[5-(4-chlorophenyl)-2-oxo-6H-1,3,4-thiadiazin-3-ylmethyl]phenyl}-3-(1-methylpyrrolidin-3-ylmethyl)urea] it was 0.01 to 1 µM.

Take `CCNC(=O)Nc1cccc(CN2N=C(c3cc(Cl)ccc3O)CSC2=O)c1` [Compound A2]: the IC50 fell in the range of 0.01 to 1 µM.

With `CN(C)C(=O)Nc1cccc(CN2N=C(c3cc(Cl)ccc3O)CSC2=O)c1` [Compound A12], the IC50 lay within 0.01 to 1 µM. In the case of `CCOC(=O)C(=O)Nc1cccc(CN2N=C(c3ccc(Cl)cc3)CSC2=O)c1` [Compound A9, ethyl N-{3-[5-(4-chlorophenyl)-2-oxo-6H-1,3,4-thiadiazin-3-ylmethyl]phenyl}oxalaminate] it was 0.01 to 1 µM.

As for `CNCCNC(=O)Nc1cccc(CN2N=C(c3ccc(C#N)cc3)CSC2=O)c1` [Compound A10], the IC50 fell in the range of 0.01 to 1 µM. To `O=C(NCCO)Nc1cccc(CN2N=C(c3ccc(Cl)cc3)CSC2=O)c1` [Compound A5] belongs 0.01 to 1 µM.
